Experimental findings from patent US4520026A, “Indolizine derivatives and use as cardiovascular agents” (S. A. Labaz N.V., priority 1982, dated 1985) are described below.

Bounds are passed on as bounds.

Test [1] has as its system epinephrine-accelerated heart rate (anti-β effect). The test can be described thus: Antiadrenergic effect: anti-β effect (reduction of epinephrine-accelerated heart rate). In kind it is in vivo. To be noted: dog. The procedure: (§1) The purpose of this test was to determine the capacity of the compounds under study to reduce epinephrine-increased blood-pressure (anti-α effect) and epinephrine-accelerated heart rate (anti-β effect) in the dog previously anaesthetized with pentobarbital and atropinized.
(§2) For each dog, the dose of epinephrine was first determined which provoked a reproductible increase by about 100 mm. Hg in the arterial pressure (between 5 and 10 μg/kg). After that, the dose of epinephrine so determined was administered followed by a dose by intravenous route of the compound to be studied. The percentage of reduction of the hypertension provoked by the compound under study in comparison with the hypertension previously obtained (about 100 mm. Hg) was then registered.
(§3) The percentage of reduction of the epinephrine-induced acceleration of heart-rate produced by the compound under study in comparison with the tachycardia previously measured (about 70 beats) was then registered. In both cases, the results were expressed as follows: […]
(§4) + for a <50%-reduction of the increase in pressure or cardiac frequency
(§5) ++ for a ≥50%-reduction of the increase in pressure or cardiac frequency
(§6) +++ for a subtotal reduction of the increase in pressure or cardiac frequency

Test [2] concerns epinephrine-increased blood-pressure (anti-α effect). The test can be described thus: Antiadrenergic effect: anti-α effect (reduction of epinephrine-increased blood-pressure). Type of test: in vivo. Particulars: dog. How it is done: as §1, §2, §3, §4, §5, §6
Setting [3] is: Canis lupus familiaris, iv, dose 7.5 mg/kg i.v.
The mark [4] stands for this setting: Canis lupus familiaris, iv, dose 7 mg/kg i.v.
Where [5] appears, read: Canis lupus familiaris, iv, dose 10 mg/kg i.v.
Where [6] appears, read: Canis lupus familiaris, iv, dose 5 mg/kg i.v.
Setting [7] is: Canis lupus familiaris, iv, dose 8.76 mg/kg i.v.

On to `CCCN(CCC)CCCOc1ccc(C(=O)c2c(C)c(Br)c3ccccn23)cc1OC` [Br/OCH3/H/CH3/n-C3H7/3, 1-Bromo-2-methyl-3-[4-(3-di-n-propylaminopropyl)-oxy-3-methoxy-benzoyl]-indolizine], for which the inhibition in vivo at 7.5 mg/kg in test [1] (setting [3]) and in test [2] (setting [3]) was more than 50% each time.
For the molecule `CCCCN(CCCC)CCCOc1ccc(C(=O)c2c(C)c(Br)c3ccccn23)cc1OC` [Br/OCH3/H/CH3/n-C4H9/3, 1-Bromo-2-methyl-3-[4-(3-di-n-butylaminopropyl)-oxy-3-methoxy-benzoyl]-indolizine], the inhibition in vivo at 7 mg/kg in test [1] (setting [4]) and in test [2] (setting [4]) was more than 50% throughout.
Take `CCCCN(CCCC)CCCOc1ccc(C(=O)c2c(CC)c(C)c3ccccn23)cc1Br` [CH3/Br/H/C2H5/n-C4H9/3, 1-Methyl-2-ethyl-3-[4-(3-di-n-butylaminopropyl)-oxy-3-bromo-benzoyl]-indolizine]: the inhibition in vivo – broadly, the change of the read-out against control, counted positive when it falls – at 2 mg/kg in test [1] (Canis lupus familiaris, iv, dose 2 mg/kg i.v.) was more than 50%. Also, the Anti-α effect entry in test [2] (dose 2 mg/kg i.v.) is listed as “+++”.
With `CCCCN(CCCC)CCCOc1ccc(C(=O)c2c(C)c(C)c3ccccn23)cc1Br` [CH3/Br/H/CH3/n-C4H9/3, 1,2-Dimethyl-3-[4-(3-di-n-butylaminopropyl)-oxy-3-bromo-benzoyl]-indolizine], the inhibition in vivo at 10 mg/kg in test [1] (setting [5]) and in test [2] (setting [5]) was more than 50% throughout.
For `CCCCN(CCCC)CCCOc1ccc(C(=O)c2c(-c3ccccc3)c(C)c3ccccn23)cc1Br` [CH3/Br/H/drawing 45/n-C4H9/3, 1-Methyl-2-phenyl-3-[4-(3-di-n-butylaminopropyl)-oxy-3-bromo-benzoyl]-indolizine], the inhibition in vivo at 6.2 mg/kg in test [1] (Canis lupus familiaris, iv, dose 6.2 mg/kg i.v.) is more than 50%. Further, the Anti-α effect entry in test [2] (dose 6.2 mg/kg i.v.) is reported as “+++”.
In the case of `CCCN(CCC)CCCOc1ccc(C(=O)c2c(-c3ccccc3)c(C)c3ccccn23)cc1Br` [CH3/Br/H/drawing 46/n-C3H7/3, 1-Methyl-2-phenyl-3-[4-(3-di-n-propylaminopropyl)-oxy-3-bromo-benzoyl]-indolizine], the inhibition in vivo at 5 mg/kg in test [1] (setting [6]) and in test [2] (setting [6]) was more than 50% in each case.
For the molecule `CCCCN(CCCC)CCCOc1ccc(C(=O)c2c(CCC)c(C)c3ccccn23)cc1Br` [CH3/Br/H/n-C3H7/n-C4H9/3, 1-Methyl-2-n-propyl-3-[4-(3-di-n-butylaminopropyl)-oxy-3-bromo-benzoyl]-indolizine], in test [1] (dose 10 mg/kg i.v.), the Anti-β effect entry is listed as “+++”. The Anti-α effect entry in test [2] (dose 10 mg/kg i.v.) is “+++”.
Take `CCCCc1c(C)c2ccccn2c1C(=O)c1ccc(OCCCN(CCCC)CCCC)c(Br)c1` [CH3/Br/H/n-C4H9/n-C4H9/3, 1-Methyl-2-n-butyl-3-[4-(3-di-n-butylaminopropyl)-oxy-3-bromo-benzoyl]-indolizine]: the inhibition in vivo at 7.5 mg/kg in test [1] (setting [3]) and in test [2] (setting [3]) was more than 50% in each case.
As for `CCCCN(CCCC)CCCOc1ccc(C(=O)c2c(-c3ccccc3)c(C)c3ccccn23)cc1` [CH3/H/H/drawing 47/n-C4H9/3, 1-Methyl-2-phenyl-3-[4-(3-di-n-butylaminopropyl)-oxy-benzoyl]-indolizine], in test [1] (dose 6.3 mg/kg i.v.), the Anti-β effect result is recorded as “+++”. Further, the Anti-α effect entry in test [2] (dose 6.3 mg/kg i.v.) was “+++”.
For the molecule `CCCN(CCC)CCCOc1ccc(C(=O)c2c(-c3ccccc3)c(C)c3ccccn23)cc1` [CH3/H/H/drawing 48/n-C3H7/3, 1-Methyl-2-phenyl-3-[4-(3-di-n-propylaminopropyl)-oxy-benzoyl]-indolizine], the Anti-β effect result in test [1] (dose 5 mg/kg i.v.) is recorded as “+++”. In test [2] (dose 5 mg/kg i.v.), the Anti-α effect result is “+++”.
Take `CCCN(CCC)CCCOc1c(Br)cc(C(=O)c2c(-c3ccccc3)c(Cl)c3ccccn23)cc1Br` [Cl/Br/Br/drawing 38/n-C3H7/3, 1-Chloro-2-phenyl-3-[4-(3-di-n-propylaminopropyl)-oxy-3,5-dibromo-benzoyl]-indolizine]: the inhibition in vivo at 10 mg/kg in test [1] (setting [5]) and in test [2] (setting [5]) was less than 50% in each case.
On to `CCCCN(CCCC)CCCOc1ccc(C(=O)c2c(CC)c(Cl)c3ccccn23)cc1Br` [Cl/Br/H/C2H5/n-C4H9/3, 1-Chloro-2-ethyl-3-[4-(3-di-n-butylaminopropyl)-oxy-3-bromo-benzoyl]-indolizine], for which the Anti-β effect result in test [1] (dose 10 mg/kg i.v.) is “+++”. Besides, the Anti-α effect result in test [2] (dose 10 mg/kg i.v.) was “+++”.
Take `CCCN(CCC)CCCOc1c(Cl)cc(C(=O)c2c(CC)c(Cl)c3ccccn23)cc1Cl` [Cl/Cl/Cl/C2H5/n-C3H7/3, 1-Chloro-2-ethyl-3-[4-(3-di-n-propylaminopropyl)-oxy-3,5-dichloro-benzoyl]-indolizine]: the inhibition in vivo at 10 mg/kg in test [1] (setting [5]) and in test [2] (setting [5]) was more than 50% each time.
For the molecule `CCCCN(CCCC)CCCOc1c(Cl)cc(C(=O)c2c(-c3ccccc3)c(Cl)c3ccccn23)cc1Cl` [Cl/Cl/Cl/drawing 37/n-C4H9/3, 1-Chloro-2-phenyl-3-[4-(3-di-n-butylaminopropyl)-oxy-3,5-dichloro-benzoyl]-indolizine], in test [1] (setting [5]), the inhibition in vivo at 10 mg/kg is more than 50%. The Anti-α effect entry in test [2] (dose 10 mg/kg i.v.) is given as “+++”.
`CCCN(CCC)CCCOc1ccc(C(=O)c2c(-c3cccc(Br)c3)c(Cl)c3ccccn23)cc1Cl` [Cl/Cl/H/drawing 33/n-C3H7/3, 1-Chloro-2-(3-bromo-phenyl)-3-[4-(3-di-n-propylaminopropyl)-oxy-3-chloro-benzoyl]-indolizine] came in with an inhibition in vivo at 8 mg/kg in test [1] (Canis lupus familiaris, iv, dose 8 mg/kg i.v.) of more than 50%. The Anti-α effect entry in test [2] (dose 8 mg/kg i.v.) is given as “+++”.
Take `CCCCN(CCCC)CCCOc1ccc(C(=O)c2c(-c3ccc(Cl)cc3)c(Cl)c3ccccn23)cc1` [Cl/H/H/drawing 34/n-C4H9/3]: the inhibition in vivo at 10 mg/kg in test [1] (setting [5]) is more than 50%. Further, in test [2] (dose 10 mg/kg i.v.), the Anti-α effect result is “+++”.
Turning to `CCCN(CCC)CCCOc1ccc(C(=O)c2c(-c3ccc(Cl)cc3)c(Cl)c3ccccn23)cc1` [Cl/H/H/drawing 35/n-C3H7/3], the inhibition in vivo at 5 mg/kg was less than 50% in test [1] (setting [6]) and more than 50% in test [2] (setting [6]).
In the case of `CCCCN(CCCC)CCCOc1ccc(C(=O)c2c(-c3ccccc3)c(Cl)c3ccccn23)cc1` [Cl/H/H/drawing 36/n-C4H9/3], the Anti-β effect result in test [1] (dose 5 mg/kg i.v.) is recorded as “+++”. For the same molecule, in test [2] (dose 5 mg/kg i.v.), the Anti-α effect result is reported as “+++”.
Take `CCCCN(CCCC)CCCOc1ccc(C(=O)c2c(CCC)c(Cl)c3ccccn23)cc1` [Cl/H/H/n-C3H7/n-C4H9/3, 1-Chloro-2-n-propyl-3-[4-(3-di-n-butylaminopropyl)-oxy-benzoyl]-indolizine]: the Anti-β effect result in test [1] (dose 7.5 mg/kg i.v.) is on record as “+++”. The Anti-α effect entry in test [2] (dose 7.5 mg/kg i.v.) is “+++”.
`CCCN(CCC)CCCOc1c(Br)cc(C(=O)c2c(-c3ccc(Br)cc3)cc3ccccn23)cc1Br` [H/Br/Br/drawing 41/n-C3H7/3]: the Anti-β effect entry in test [1] (dose 10 mg/kg i.v.) is reported as “+++”. The Anti-α effect entry in test [2] (dose 10 mg/kg i.v.) is “+++”.
In the case of `CCCCN(CCCC)CCCOc1c(Br)cc(C(=O)c2c(-c3ccccc3)cc3ccccn23)cc1Br` [H/Br/Br/drawing 42/n-C4H9/3], the inhibition in vivo at 10 mg/kg in test [1] (setting [5]) and in test [2] (setting [5]) was more than 50% each time.
In turn, `CCCCN(CCCC)CCCOc1ccc(C(=O)c2c(CC)cc3ccccn23)cc1Br` [H/Br/H/C2H5/n-C4H9/3, 2-Ethyl-3-[4-(3-di-n-butylaminopropyl)-oxy-3-bromo-benzoyl]-indolizine] registered an inhibition in vivo at 7.5 mg/kg in test [1] (setting [3]) of more than 50%. The Anti-α effect result in test [2] (dose 7.5 mg/kg i.v.) is on record as “+++”.
`CCCCN(CCCC)CCCOc1ccc(C(=O)c2c(-c3ccccc3)cc3ccccn23)cc1Br` [H/Br/H/drawing 24/n-C4H9/3] had an inhibition in vivo at 10 mg/kg in test [1] (setting [5]) of more than 50%. In test [2] (dose 10 mg/kg i.v.), the Anti-α effect entry is listed as “+++”.
With `CCCN(CCC)CCCOc1ccc(C(=O)c2c(C(C)C)cc3ccccn23)cc1Br` [H/Br/H/iso-C3H7/n-C3H7/3, 2-Isopropyl-3-[4-(3-di-n-propylaminopropyl)-oxy-3-bromo-benzoyl]-indolizine], in test [1] (setting [3]), the inhibition in vivo at 7.5 mg/kg was more than 50%. Besides, the Anti-α effect result in test [2] (dose 7.5 mg/kg i.v.) is listed as “+++”.
The molecule `CCCCN(CCCC)CCCOc1ccc(C(=O)c2c(C(C)C)cc3ccccn23)cc1Br` [H/Br/H/iso-C3H7/n-C4H9/3] gave an inhibition in vivo at 6 mg/kg in test [1] (Canis lupus familiaris, iv, dose 6 mg/kg i.v.) of more than 50%. Further, in test [2] (dose 6 mg/kg i.v.), the Anti-α effect result is reported as “+++”.
For the molecule `CCCCc1cc2ccccn2c1C(=O)c1ccc(OCCCN(CCC)CCC)c(Br)c1` [H/Br/H/n-C4H9/n-C3H7/3, 2-n-Butyl-3-[4-(3-di-n-propylaminopropyl)-oxy-3-bromo-benzoyl]-indolizine], in test [1] (setting [6]), the inhibition in vivo at 5 mg/kg is more than 50%. Moreover, the Anti-α effect result in test [2] (dose 5 mg/kg i.v.) is on record as “+++”.
Take `CCCCN(CCCC)CCCOc1ccc(C(=O)c2c(CC)cc3ccccn23)cc1C` [H/CH3/H/C2H5/n-C4H9/3, 2-Ethyl-3-[4-(3-di-n-butylaminopropyl)-oxy-3-methyl-benzoyl]-indolizine]: the Anti-β effect entry in test [1] (dose 10 mg/kg i.v.) is “+++”. Moreover, the Anti-α effect entry in test [2] (dose 10 mg/kg i.v.) was “+++”.
On to `CCCCN(CCCC)CCCOc1ccc(C(=O)c2c(C)cc3ccccn23)cc1C` [H/CH3/H/CH3/n-C4H9/3, 2-Methyl-3-[4-(3-di-n-butylaminopropyl)-oxy-3-methyl-benzoyl]-indolizine], for which the inhibition in vivo at 8.76 mg/kg in test [1] (setting [7]) and in test [2] (setting [7]) was more than 50% throughout.
For `CCCCN(CCCC)CCCOc1ccc(C(=O)c2c(C(C)C)cc3ccccn23)cc1C` [H/CH3/H/iso-C3H7/n-C4H9/3, 2-Isopropyl-3-[4-(3-di-n-butylaminopropyl)-oxy-3-methyl-benzoyl]-indolizine], the Anti-β effect result in test [1] (dose 7.5 mg/kg i.v.) was “+++”. Besides, the Anti-α effect entry in test [2] (dose 7.5 mg/kg i.v.) is listed as “+++”.
